What is called melting point is the temperature, or range, at which the solid turns liquid. For `O=C1c2ccc(F)cc2C(=O)N1CCCCN1CC=C(c2c[nH]c3ccc(F)cc23)CC1`, the melting point lay within 197 to 199 °C.

These data come from US6391896B1, “3-Tetrahydropyridin-4-yl indoles for treatment of psychotic disorders” (Duphar International Research BV, priority 1998, dated 2002).
